Experiments:
in vivo = test: in vivo; design: species or system mice; details: female, BALB/c nude, mouse, iv, 20 pmol, total radioactivity
From the text: (§1) Based on these preliminary studies, [^177Lu]Lu-2 was selected for further biodistribution studies evaluating the tumor uptake and tissue distribution for up to 7 days after injection. This study was approved by the Nijmegen Medical Center animal ethics committee (RUDEC) and the Dutch animal ethics committee (CCD) of the Radboud University (2020–0007-020). Female BALB/c nude mice were inoculated with A431-CCK2R cells at an age of 8–10 weeks (n = 20). When tumor xenografts were formed, mice were injected intravenously via a lateral tail vein with ~1 MBq of [^177Lu]Lu-2, corresponding to 20 pmol of peptide, in a total volume of 200 µL in PBS/0.5% BSA. For quantification, a 1% standard was used. At different time points of 1 h, 24 h, 3 days, and 7 days after injecton, animals were euthanized by CO2/O2-asphyxiation and a blood sample was immediately drawn, and tissues of interest (spleen, pancreas, stomach, intestine, kidneys, liver, heart, lung, muscle, femur, A431-CCK2R tumor, and A431-mock tumor) were dissected. All collected samples were weighed and measured in the γ-counter together with the standard. Results were expressed as percentage of injected activity per gram of tissue (%IA/g), and tumor-to-organ activity ratios were calculated for selected tissues. For dose-limiting organs, kidneys and stomach, dosimetry estimates were calculated using Olinda-EXM (version 2.2, Vanderbilt University) and standard weights for humans (male and female). For this purpose, the % IA/g determined in mice was extrapolated to humans using the following equation: % IA per organ in humans=[%IA/gin mice×mass of mice (kg)]×(mass of human organ (g)/total body mass of human (kg))

[1] = system: A431-CCK2R xenografted BALB/c nude mice; test: in vivo; details: mouse
From the text: as §1

[2] = Biodistribution blocking experiment with 1000-fold excess of non-radiolabeled peptide; assay type: in vivo, mice; details: female, BALB/c nude, mouse, in vivo, iv, total radioactivity, blocking
Procedure: (§2) Then, after 7–11 days, when visible tumor xenografts were formed, groups of 5 mice were injected intravenously via a lateral tail vein with ~0.5 MBq of radiolabeled peptide, corresponding to 20 pmol of peptide, in a total volume of ~150 µL in PBS/0.5% BSA. Using an additional mouse per group, a blocking study was performed by co-injecting a 1000-fold molar excess of the respective peptide analog (20 nmol) together with the radiolabeled peptide. For quantification, a 1:1, 1:10 and 1:50 standard was prepared using aliquots of the injection solution mixed with PBS/0.5% BSA. Mice were euthanized by cervical dislocation 4 h after injection. Subsequently, a blood sample was collected, and different tissues were dissected. All samples, as well as the rest of the body were weighed, and the activity measured in the γ-counter together with the standard. Results were expressed as percentage of injected activity per gram of tissue (%IA/g).

[3] = Biodistribution 4 h p.i. in A431-CCK2R/A431-mock xenografted BALB/c nude mice; assay type: in vivo; details: female, BALB/c nude, mouse, in vivo, iv, 20 pmol, total radioactivity
Procedure: as §2

[4] = system: A431-CCK2R/A431-mock xenografted BALB/c nude mice; test: as above; assay type: in vivo; details: mouse, in vivo
Procedure: as §2

[5] = uptake in A431-CCK2R xenografts
[6] = female, BALB/c nude, iv, 20 pmol, 72 h

tissue to tissue ratio at 1 h (in vivo; Tumor-to-blood ratio): 38.9
tissue to tissue ratio at 24 h (in vivo; Tumor-to-blood ratio): 3240
tissue to tissue ratio at 72 h (in vivo; Tumor-to-blood ratio): 4860
tissue to tissue ratio at 168 h (in vivo; Tumor-to-blood ratio): 241
tissue to tissue ratio at 1 h (in vivo; Tumor-to-kidney ratio): 19.8
tissue to tissue ratio at 24 h (in vivo; Tumor-to-kidney ratio): 25.5
tissue to tissue ratio at 72 h (in vivo; Tumor-to-kidney ratio): ~17
tissue to tissue ratio at 168 h (in vivo; Tumor-to-kidney ratio): 4
tissue to tissue ratio at 1 h (in vivo; Tumor-to-stomach ratio): 10.4
tissue to tissue ratio at 24 h (in vivo; Tumor-to-stomach ratio): 9.2
tissue to tissue ratio at 72 h (in vivo; Tumor-to-stomach ratio): ~6
tissue to tissue ratio at 168 h (in vivo; Tumor-to-stomach ratio): 1.4
tissue uptake at 1 h (in vivo; [5]): 56.3 ± 9.14 %ID/g
tissue uptake at 24 h (in vivo; [5]): 33.6 ± 2.95 %ID/g
tissue uptake at 72 h (in vivo; [5]): 12.5 ± 0.96 %ID/g
tissue uptake at 168 h (in vivo; [5]): 1.23 ± 0.53 %ID/g
tissue uptake at 1 h (in vivo; uptake in blood): 1.45 ± 0.3 %ID/g
tissue uptake at 168 h (in vivo; uptake in blood): 0.01 %ID/g
tissue uptake at 1 h (in vivo; uptake in femur): 0.23 ± 0.05 %ID/g
tissue uptake at 24 h (in vivo; uptake in femur): 0.05 ± 0.01 %ID/g
tissue uptake at 72 h (in vivo; uptake in femur): 0.03 ± 0.01 %ID/g
tissue uptake at 168 h (in vivo; uptake in femur): 0.04 ± 0.02 %ID/g
tissue uptake at 1 h (in vivo; uptake in heart): 0.62 ± 0.12 %ID/g
tissue uptake at 24 h (in vivo; uptake in heart): 0.05 ± 0.01 %ID/g
tissue uptake at 72 h (in vivo; uptake in heart): 0.02 %ID/g
tissue uptake at 168 h (in vivo; uptake in heart): 0.02 %ID/g
tissue uptake at 1 h (in vivo; uptake in intestine): 1 ± 0.34 %ID/g
tissue uptake at 24 h (in vivo; uptake in intestine): 0.16 ± 0.02 %ID/g
tissue uptake at 72 h (in vivo; uptake in intestine): 0.08 %ID/g
tissue uptake at 168 h (in vivo; uptake in intestine): 0.03 %ID/g
tissue uptake at 1 h (in vivo; uptake in kidneys): 2.84 ± 0.42 %ID/g
tissue uptake at 24 h (in vivo; uptake in kidneys): 1.32 ± 0.23 %ID/g
tissue uptake at 72 h (in vivo; uptake in kidneys): 0.72 ± 0.1 %ID/g
tissue uptake at 1 h (in vivo; uptake in liver): 0.95 ± 0.12 %ID/g
tissue uptake at 24 h (in vivo; uptake in liver): 0.38 ± 0.08 %ID/g
tissue uptake at 72 h (in vivo; uptake in liver): 0.18 ± 0.01 %ID/g
tissue uptake at 168 h (in vivo; uptake in liver): 0.06 ± 0.01 %ID/g
tissue uptake at 1 h (in vivo; uptake in lung): 4.33 ± 0.87 %ID/g
tissue uptake at 24 h (in vivo; uptake in lung): 0.09 ± 0.02 %ID/g
tissue uptake at 72 h (in vivo; uptake in lung): 0.06 ± 0.01 %ID/g
tissue uptake at 168 h (in vivo; uptake in lung): 0.02 ± 0.01 %ID/g
tissue uptake at 1 h (in vivo; uptake in muscle): 0.22 ± 0.05 %ID/g
tissue uptake at 24 h (in vivo; uptake in muscle): 0.03 %ID/g
tissue uptake at 72 h (in vivo; uptake in muscle): 0.01 %ID/g
tissue uptake at 168 h (in vivo; uptake in muscle): 0.01 ± 0.01 %ID/g
tissue uptake at 1 h (in vivo; uptake in pancreas): 0.85 ± 0.14 %ID/g
tissue uptake at 24 h (in vivo; uptake in pancreas): 0.41 ± 0.08 %ID/g
tissue uptake at 72 h (in vivo; uptake in pancreas): 0.28 ± 0.04 %ID/g
tissue uptake at 168 h (in vivo; uptake in pancreas): 0.16 ± 0.04 %ID/g
tissue uptake at 1 h (in vivo; uptake in spleen): 0.54 ± 0.08 %ID/g
tissue uptake at 24 h (in vivo; uptake in spleen): 0.19 ± 0.03 %ID/g
tissue uptake at 72 h (in vivo; uptake in spleen): 0.13 ± 0.02 %ID/g
tissue uptake at 168 h (in vivo; uptake in spleen): 0.09 ± 0.04 %ID/g
tissue uptake at 1 h (in vivo; uptake in stomach): 5.43 ± 1.05 %ID/g
tissue uptake at 24 h (in vivo; uptake in stomach): 3.66 ± 0.38 %ID/g
tissue uptake at 72 h (in vivo; uptake in stomach): 2.28 ± 0.33 %ID/g
tissue uptake at 168 h (in vivo; uptake in stomach): 0.88 ± 0.12 %ID/g
uptake in A431-CCK2R xenografts ([1]; female, BALB/c nude, iv, 20 pmol, 1 h): ~ 56 % IA/g
Tumor-to-kidney ratio [1, 6]: 17.3
Tumor-to-stomach ratio [1, 6]: 5.5
uptake in A431-CCK2R xenografts [1, 6]: ~ 13 % IA/g
uptake in kidneys [1, 6]: below 1 % IA/g
decrease of kidney uptake after 24 h versus 1 h p.i. [1]: ~ 54%
drop of uptake in A431-CCK2R xenografts after 24 h versus 1 h p.i. [1]: ~ 40%
improvement in tumor uptake in comparison with [177Lu]Lu-PP-F11N [1]: 4 fold
reduction of stomach uptake at 24 h p.i. versus 1 h p.i. [1]: ~ 33%
tissue uptake at 4 h ([2]; uptake in A431-CCK2R xenograft): 0.39 %ID/g
tissue uptake at 4 h ([2]; uptake in A431-mock xenograft): 0.16 %ID/g
tissue uptake at 4 h ([2]; uptake in blood): 0.02 %ID/g
tissue uptake at 4 h ([2]; uptake in femur): 0.09 %ID/g
tissue uptake at 4 h ([2]; uptake in heart): 0.04 %ID/g
tissue uptake at 4 h ([2]; uptake in lung): 0.2 %ID/g
tissue uptake at 4 h ([2]; uptake in pancreas): 0.05 %ID/g
tissue uptake at 4 h ([2]; uptake in stomach): 0.09 %ID/g
tissue to tissue ratio at 4 h [3]: 17
tissue uptake at 4 h [3, 5]: 32.1 ± 4.05 %ID/g
tissue uptake at 4 h ([3]; uptake in A431-mock xenografts): 0.22 ± 0.06 %ID/g
tissue uptake at 4 h ([3]; uptake in blood): 0.03 ± 0.01 %ID/g
tissue uptake at 4 h ([3]; uptake in femur): 0.22 ± 0.15 %ID/g
tissue uptake at 4 h ([3]; uptake in heart): 0.07 ± 0.02 %ID/g
tissue uptake at 4 h ([3]; uptake in intestine): 0.6 ± 0.12 %ID/g
tissue uptake at 4 h ([3]; uptake in kidneys): 1.96 ± 0.29 %ID/g
tissue uptake at 4 h ([3]; uptake in liver): 1.43 ± 0.18 %ID/g
tissue uptake at 4 h ([3]; uptake in lung): 0.22 ± 0.06 %ID/g
tissue uptake at 4 h ([3]; uptake in muscle): 0.06 ± 0.03 %ID/g
tissue uptake at 4 h ([3]; uptake in pancreas): 0.72 ± 0.14 %ID/g
tissue uptake at 4 h ([3]; uptake in spleen): 0.96 ± 0.3 %ID/g
tissue uptake at 4 h ([3]; uptake in stomach): 4.3 ± 0.95 %ID/g
improvement in tumor-to-kidney ratio versus [177Lu]Lu-DOTA-MGS5 [4]: more than 2 fold
Compound: CCCC[C@@H](C(=O)N[C@@H](CC(=O)O)C(=O)N[C@@H](Cc1cccc2ccccc12)C(N)=O)N(C)C(=O)[C@H](Cc1c[nH]c2ccccc12)NC(=O)CCNC(=O)CC(O)CNC(=O)CC(O)CNC(=O)CN1CCN(CC(=O)O)CCN(CC(=O)O)CCN(CC(=O)O)CC1 (some centres unmarked) [[^177Lu]Lu-2, metal not drawn]

From paper PMC10058949, “Effect of N-Terminal Peptide Modifications on In Vitro and In Vivo Properties of ^177Lu-Labeled Peptide Analogs Targeting CCK2R” (Pharmaceutics, 2023)
